Here are results for 23 molecules from patent US8349883B2, “Hydroxamate-based inhibitors of deacetylases B” (Novartis AG, priority 2008, dated 2013).

The target in assay [1] is T1, HDAC-1 (Homo sapiens, UniProt Q13547).
T1 construct: made in house; host or cells: Sf9 or Sf21 insect cells (baculovirus, donor vector pFB-GSTX3)
The experiment in a line: HDAC inhibition assay (purified GST-HDAC protein). It is filed as biochemical.

For assay [2], the system named is HCT116. The experiment in a line: HCT116 IC50. It is filed as cell-based. As to conditions: Homo sapiens, HCT-116.

A word on the IC50: it is the concentration at which inhibition is half-maximal. A higher IC50 goes with weaker potency in that assay.

T1 sequence (Q13547 whole entry, species assumed): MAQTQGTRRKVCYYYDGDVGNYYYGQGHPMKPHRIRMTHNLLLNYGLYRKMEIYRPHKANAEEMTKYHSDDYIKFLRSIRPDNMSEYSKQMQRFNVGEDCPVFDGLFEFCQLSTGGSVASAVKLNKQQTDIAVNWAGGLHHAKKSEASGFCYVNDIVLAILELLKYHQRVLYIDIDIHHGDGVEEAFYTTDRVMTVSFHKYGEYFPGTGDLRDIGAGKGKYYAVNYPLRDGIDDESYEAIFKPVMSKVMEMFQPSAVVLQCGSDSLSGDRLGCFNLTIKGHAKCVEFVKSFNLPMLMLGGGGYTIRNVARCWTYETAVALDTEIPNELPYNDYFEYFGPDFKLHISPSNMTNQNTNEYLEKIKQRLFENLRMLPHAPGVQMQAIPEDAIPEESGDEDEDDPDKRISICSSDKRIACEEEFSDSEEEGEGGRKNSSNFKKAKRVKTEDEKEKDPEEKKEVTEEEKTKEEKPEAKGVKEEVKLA

For `COc1ccc(C(O)CN2CCCC2c2ccc(/C=C/C(=O)NO)cc2)cc1` (stereo not shown) [Compound 30, (E)-N-Hydroxy-3-(4-{1-[2-hydroxy-2-(4-methoxy-phenyl)-ethyl]-pyrrolidin-2-yl}-phenyl)-acrylamide], the IC50 in assay [1] is 14 nM; in assay [2], 46 nM.
Turning to `Cc1[nH]c2ccccc2c1CCN1CCN(C)CC1c1ccc(/C=C/C(=O)NO)cc1` (stereo not shown) [Compound 88, (E)-N-Hydroxy-3-(4-{4-methyl-1-[2-(2-methyl-1H-indol-3-yl)-ethyl]-piperazin-2-yl}-phenyl)-acrylamide], the IC50 in assay [1] was determined as 9 nM; in assay [2], 24 nM.
With `O=C(/C=C/c1ccc(C2CCCN2CCCc2ccccc2)cc1)NO` (stereo not shown) [Compound 33, (E)-N-Hydroxy-3-{4-[1-(3-phenyl-propyl)-pyrrolidin-2-yl]-phenyl}-acrylamide], the half-maximal inhibitory concentration (IC50) was found to be 5 nM in assay [1] and 39 nM in assay [2].
The corresponding values for `Cc1nn(C)c(C)c1CCN1CCC[C@H]1c1ccc(CCC(=O)NO)cc1` [Compound 112, N-Hydroxy-3-(4-{(S)-1-[2-(1,3,5-trimethyl-1H-pyrazol-4-yl)-ethyl]-pyrrolidin-2-yl}-phenyl)-propionamide] are 10 nM and 30 nM.
`Cc1nn2ccccc2c1CCN1CCC[C@H]1c1ccc(/C=C/C(=O)NO)cc1` [Compound 44, (E)-N-Hydroxy-3-(4-{(S)-1-[2-(2-methyl-pyrazolo[1,5-a]pyridin-3-yl)-ethyl]-pyrrolidin-2-yl}-phenyl)-acrylamide]: the IC50 in assay [1] is 0.6 nM; in assay [2], 0.38 nM.
For `O=C(/C=C/c1ccc(C2CCCN2CCc2ccccn2)cc1)NO` (stereo not shown) [Compound 34, (E)-N-Hydroxy-3-{4-[1-(2-pyridin-2-yl-ethyl)-pyrrolidin-2-yl]-phenyl}-acrylamide], in that order: 21 nM and 77 nM.
For `O=C(/C=C/c1ccc([C@@H]2CCCCCN2CCc2cnn3ccccc23)cc1)NO` [Compound 86, (E)-N-Hydroxy-3-{4-[(S)-1-(2-pyrazolo[1,5-a]pyridin-3-yl-ethyl)-azepan-2-yl]-phenyl}-acrylamide], in that order: 10 nM and 42 nM.
As to `Cc1[nH]c2ccccc2c1CCN1CCNCC1c1ccc(/C=C/C(=O)NO)cc1` (stereo not shown) [Compound 89, (E)-N-Hydroxy-3-(4-{1-[2-(2-methyl-1H-indol-3-yl)-ethyl]-piperazin-2-yl}-phenyl)-acrylamide], the IC50 in assay [1] came to 7 nM; in assay [2], 200 nM.
For `O=C(/C=C/c1ccc(C2CCCN2CCc2ccccc2F)cc1)NO` (stereo not shown) [Compound 27, (E)-3-(4-{1-[2-(2-Fluoro-phenyl)-ethyl]-pyrrolidin-2-yl}-phenyl)-N-hydroxy-acrylamide], in that order: 6 nM and 11 nM.
For `O=C(/C=C/c1ccc([C@@H]2CCCN2CCc2cnn3ccccc23)cc1)NO` [Compound 43, (E)-N-Hydroxy-3-{4-[(S)-1-(2-pyrazolo[1,5-a]pyridin-3-yl-ethyl)-pyrrolidin-2-yl]-phenyl}-acrylamide], in that order: 1 nM and 1.1 nM.
The corresponding values for `O=C(/C=C/c1ccc([C@@H]2CCCN2CCc2ccc(Cl)cc2)cc1)NO` [Compound 22, (E)-3-(4-{(S)-1-[2-(4-Chloro-phenyl)-ethyl]-pyrrolidin-2-yl}-phenyl)-N-hydroxy-acrylamide] are 7 nM and 13 nM.
As to `O=C(/C=C/c1ccc([C@@H]2CCCN2CCn2cccn2)cc1)NO` [Compound 63, (E)-N-Hydroxy-3-{4-[(S)-1-(2-pyrazol-1-yl-ethyl)-pyrrolidin-2-yl]-phenyl}-acrylamide], the IC50 in assay [1] stood at 42 nM; in assay [2], 180 nM.
As for `Cc1nn(C)c(C)c1CCN1CCC[C@H]1c1ccc(/C=C/C(=O)NO)cc1` [Compound 60, (E)-N-Hydroxy-3-(4-{(S)-1-[2-(1,3,5-trimethyl-1H-pyrazol-4-yl)-ethyl]-pyrrolidin-2-yl}-phenyl)-acrylamide], the IC50 amounted to 1.8 nM in assay [1] and 4 nM in assay [2].
For `O=C(/C=C/c1ccc([C@@H]2CCCN2CCC2CCOCC2)cc1)NO` [Compound 42, (E)-N-Hydroxy-3-(4-{(S)-1-[2-(tetrahydro-pyran-4-yl)-ethyl]-pyrrolidin-2-yl}-phenyl)-acrylamide], in that order: 32 nM and 53 nM.
For the molecule `O=C(/C=C/c1ccc([C@@H]2CCCN2CCS(=O)(=O)c2ccccc2)cc1)NO` [Compound 98, (E)-3-{4-[(S)-1-(2-Benzenesulfonyl-ethyl)-pyrrolidin-2-yl]-phenyl}-N-hydroxy-acrylamide], the IC50 worked out at 36 nM in assay [1] and 50 nM in assay [2].
As to `Cc1nn(-c2ccccc2)c(C)c1CCN1CCC[C@H]1c1ccc(/C=C/C(=O)NO)cc1` [Compound 55, (E)-3-(4-{(S)-1-[2-(3,5-Dimethyl-1-phenyl-1H-pyrazol-4-yl)-ethyl]-pyrrolidin-2-yl}-phenyl)-N-hydroxy-acrylamide], the IC50 was 2 nM in assay [1] and 1.1 nM in assay [2].
`Cc1nn(CCN2CCC[C@H]2c2ccc(/C=C/C(=O)NO)cc2)cc1Br` [Compound 70, (E)-3-(4-{(S)-1-[2-(4-Bromo-3-methyl-pyrazol-1-yl)-ethyl]-pyrrolidin-2-yl}-phenyl)-N-hydroxy-acrylamide]: the IC50 in assay [1] was 30 nM; in assay [2] it was 96 nM.
Consider `O=C(/C=C/c1ccc([C@@H]2CCCN2CCn2ccc(C(F)(F)F)n2)cc1)NO` [Compound 73, (E)-N-Hydroxy-3-(4-{(S)-1-[2-(3-trifluoromethyl-pyrazol-1-yl)-ethyl]-pyrrolidin-2-yl}-phenyl)-acrylamide], for which the figures for the IC50 in assay [1] and in assay [2] were 71 nM and 230 nM, respectively.
For `O=C(/C=C/c1ccc(C2CCCN2CCc2c(-c3ccccc3)[nH]c3ccccc23)cc1)NO` (stereo not shown) [Compound 7, (E)-N-Hydroxy-3-(4-{1-[2-(2-phenyl-1H-indol-3-yl)-ethyl]-pyrrolidin-2-yl}-phenyl)-acrylamide], in that order: 12 nM and 3 nM.
Take `O=C(/C=C/c1ccc(C2CCCN2CCc2ccc(O)cc2)cc1)NO` (stereo not shown) [Compound 20, (E)-N-Hydroxy-3-(4-{1-[2-(4-hydroxy-phenyl)-ethyl]-pyrrolidin-2-yl}-phenyl)-acrylamide]: the values for the IC50 in assay [1] and in assay [2] were 3 nM and 11 nM, respectively.
As to `O=C(/C=C/c1ccc(C2CCCN2CCc2c[nH]c3ccccc23)cc1)NO` (stereo not shown) [Compound 3, (E)-N-Hydroxy-3-(4-{1-[2-(1H-indol-3-yl)-ethyl]-pyrrolidin-2-yl}-phenyl)-acrylamide], the IC50 worked out at 1 nM in assay [1] and 1.2 nM in assay [2].
For `O=C(/C=C/c1ccc(C2CCCN2CCCc2c[nH]c3ccccc23)cc1)NO` (stereo not shown) [Compound 2, (E)-N-Hydroxy-3-(4-{1-[3-(1H-indol-3-yl)-propyl]-pyrrolidin-2-yl}-phenyl)-acrylamide], in that order: 10 nM and 50 nM.
With `Cc1cnn(CCN2CCC[C@H]2c2ccc(/C=C/C(=O)NO)cc2)c1` [Compound 64, (E)-N-Hydroxy-3-(4-{(S)-1-[2-(4-methyl-pyrazol-1-yl)-ethyl]-pyrrolidin-2-yl}-phenyl)-acrylamide], the concentration for half-maximal inhibition (IC50) in assay [1] worked out at 62 nM; in assay [2] it was 190 nM.
